The values below come from ChEMBL document CHEMBL5120924 (J Nat Prod, 2022).

One assay relates to OVCAR-3. The assay can be described thus: Cytotoxicity against human OVCAR-3 cells assessed as reduction in cell viability measured after 72 hrs by celltiter-blue cell viability assay. It counts as functional, cell-based. Particulars: OVCAR-3, 72 h. A general note: The colour change of resazurin is a common sign of viable cells or microbes.
A further assay has as its system MDA-MB-435. The assay can be described thus: Cytotoxicity against human MDA-MB-435 cells assessed as reduction in cell viability measured after 72 hrs by celltiter-blue cell viability assay. It counts as functional, cell-based. Particulars: MDA-MB-435, 72 h.

Regarding `C=CCOC(=O)O[C@H]1C[C@H]2O[C@@H]2c2cc(OC)cc(O)c2C(=O)O[C@@H](C)C/C=C\C(=O)[C@H]1O`, the IC50 with OVCAR-3 and with MDA-MB-435 was 1700 nM throughout.
Regarding `COc1cc(O)c2c(c1)[C@H]1O[C@@H]1C[C@H](OC(=O)/C=C\C(=O)O)[C@H](OC(=O)/C=C\C(=O)O)C(=O)/C=C\C[C@H](C)OC2=O`, the 50% inhibitory concentration (IC50) in the assay on OVCAR-3 and with MDA-MB-435 was 1700 nM each time.
For the compound `COc1cc(O)c2c(c1)[C@H]1O[C@@H]1C[C@H](O)[C@H](OC(C)=O)C(=O)/C=C\C[C@H](C)OC2=O`, the IC50 with OVCAR-3 and in the assay on MDA-MB-435 was 1700 nM in each case.
Take `COc1cc(O)c2c(c1)[C@H]1O[C@@H]1C[C@H](OC(=O)/C=C\C(=O)O)[C@H](O)C(=O)/C=C\C[C@H](C)OC2=O`: the concentration for half-maximal inhibition (IC50) in the assay on OVCAR-3 and with MDA-MB-435 was 1700 nM each time.
Consider `COc1cc(O)c2c(c1)[C@H]1O[C@@H]1C[C@H](O)[C@H](O)C(=O)/C=C\C[C@H](C)OC2=O` [HYPOTHEMYCIN], for which the results for the IC50 in the assay on OVCAR-3 and with MDA-MB-435 were 2600 nM and 1900 nM, respectively.
The corresponding values for `COc1cc(O)c2c(c1)[C@H]1O[C@@H]1C[C@H](OC(C)=O)[C@H](O)C(=O)/C=C\C[C@H](C)OC2=O` are 1700 nM and 1700 nM.
The corresponding values for `CCOC(=O)O[C@H]1C[C@H]2O[C@@H]2c2cc(OC)cc(O)c2C(=O)O[C@@H](C)C/C=C\C(=O)[C@H]1O` are 1700 nM and 1700 nM.
For the compound `COc1cc(O)c2c(c1)[C@H]1O[C@@H]1C[C@H](OC(=O)CCC(=O)O)[C@H](O)C(=O)/C=C\C[C@H](C)OC2=O`, the IC50 with OVCAR-3 and in the assay on MDA-MB-435 was 1700 nM each time.
Turning to `C=CCOC(=O)O[C@@H]1C(=O)/C=C\C[C@H](C)OC(=O)c2c(O)cc(OC)cc2[C@H]2O[C@@H]2C[C@@H]1O`, the IC50 in the assay with OVCAR-3 and in the assay on MDA-MB-435 was 1700 nM in each case.
In the case of `COC(=O)O[C@@H]1C(=O)/C=C\C[C@H](C)OC(=O)c2c(O)cc(OC)cc2[C@H]2O[C@@H]2C[C@@H]1O`, the IC50 in the assay with OVCAR-3 and in the assay with MDA-MB-435 was 1700 nM throughout.
`COC(=O)O[C@H]1C[C@H]2O[C@@H]2c2cc(OC)cc(O)c2C(=O)O[C@@H](C)C/C=C\C(=O)[C@H]1O`: the IC50 with OVCAR-3 and in the assay on MDA-MB-435 was 1700 nM each time.

The term IC50 denotes the concentration at which inhibition is half-maximal.
